Measured values reported in US11912719B2, “Substituted isoquinolines as rock kinase inhibitors” (Cervello Therapeutics LLC, priority 2018, dated 2024).
Like-named read-outs stand apart in the source and are kept apart here.

What was measured:
Type in all cases: biochemical
[1] = target: T1, human ROCK1 catalytic domain (Homo sapiens, UniProt Q13464); assay: fluorescence coupling (TR-FRET) enzymatic assay, ROCK1
T1 construct: GST; purchased Carna BioSciences 01-109
Experimental: (§1) Briefly, compounds of the present invention were solubilized in DMSO and a series of 12, three-fold serial dilutions were made for each compound in 2.5% DMSO. The initial starting concentration for the serial dilutions of each compound was 10 μM or 100 μM. Control samples lacking compound, ROCK enzyme or ATP also were prepared and processed in parallel with compound test samples.
The reaction mixtures were incubated at room temperature for one hour. After one hour, the reaction was stopped by the addition of a 10 solution of an Europium-labelled phospho-CREB (Ser133) antibody (Perkin Elmer, Catalog #TRF0200) in LANCE buffer supplemented with 20 mM EDTA. The stopped reaction mixtures were incubated at room temperature for 90 minutes. […] The ICso value for each compound was determined from each dose-response curve using GraphPad Prism 7 software with a sigmodial dose response.

[2] = target: T2, human ROCK2 enzyme kinase domain (Homo sapiens, UniProt O75116); assay: fluorescence coupling (TR-FRET) enzymatic assay, ROCK2; details: 4 nM enzyme, 50 nM Ulight-CREBTide, one hour room temperature
T2 construct: GST; purchased Carna BioSciences 01-110
Experimental: (§2) Dose-response curves for compounds of the present invention were determined using a fluorescence coupling enzymatic assay using purified C-terminal truncated human ROCK1 catalytic domain (amino acids 1-477 of accession number NP_005397.1) fused to GST (Carna BioSciences, Catalog #01-109) and purified C-terminal truncated human ROCK2 enzyme kinase domain (amino acids 1-553 of accession number NP_004841.2) fused to GST BioSciences, Catalog #01-110). In addition, full length cGMP-dependent protein kinase 1 (PKG or PRKG1; amino acids 1-686 of accession number NP_006249.1) fused to GST (Carna BioSciences, Catalog #01-142), full length PKACα (PRKACA; amino acids 1-351 of accession number NP_002721.1) fused to GST (Carna BioSciences, Catalog #01-127), and C-terminal truncated human AKT1 catalytic domain (amino acids 104-480 of accession number NP_005154.1) fused to GST Biosciences, Catalog #01-101) were used as a control to measure any non-desired off-target kinase activity.
as §1
(§3) A 4 μL aliquot of each serial dilution of test compound diluted in H2O with 2.5% DMSO was added to a well containing 4 μL of 10 nM purified N-truncated ROCK1 (4 nM final concentration), 10 nM purified N-truncated ROCK2 enzyme (4 nM final concentration), 1.25 nM AKT1 (0.5 nM final concentration), 25 pM PKACA (10 pM final concentration) or 20 nM PKG (8 nM final concentration), in reaction buffer containing 50 mM Hepes, pH 7.5, 1 mM EGTA, 10 mM MgCl2, 2 mM DTT, and 0.01% Tween 20 (final concentration). To initiate the enzymatic reaction, 2 μL of a solution was added to each well to provide a final concentration of 50 nM Ulight-CREBTide peptide substrate (Perkin Elmer, Catalog #TRF0107) and 4 μM ATP for ROCK1 and AKT1 assays, […] for ROCK2 assays and 30 μM ATP for PKG assays, or 1 μM ATP for PKACA assays. The reaction mixtures were incubated at room temperature for one hour. After one hour, the reaction was stopped by the addition of a 10 solution of an Europium-labelled phospho-CREB (Ser133) antibody (Perkin Elmer, Catalog #TRF0200) in LANCE buffer supplemented with 20 mM EDTA. The stopped reaction mixtures were incubated at room temperature for 90 minutes. The TR-FRET 665/620 ratios were determined using a Clariostar monochromator plate reader instrument (BMG LabTech) in accordance with the manufacturer's instructions. The ICso value for each compound was determined from each dose-response curve using GraphPad Prism 7 software with a sigmodial dose response. Key: A is IC50≤100 nM; B is 100 nM<IC50<1000 nM; C is 1,000<IC50≤10,000 nM; D is IC50>10,000 nM

[3] = target: T3, PKACα (PRKACA) (Homo sapiens, UniProt P17612); assay: fluorescence coupling (TR-FRET) enzymatic assay, PKACA off-target control; details: 10 pM enzyme, 1 μM ATP, 50 nM Ulight-CREBTide, one hour room temperature
T3 construct: GST; purchased Carna BioSciences 01-127
Experimental: as §2, §1, §3

[4] = target: T4, cGMP-dependent protein kinase 1 (PKG or PRKG1) (Homo sapiens, UniProt Q13976); assay: fluorescence coupling (TR-FRET) enzymatic assay, PKG off-target control; details: 8 nM enzyme, 30 μM ATP, 50 nM Ulight-CREBTide, one hour room temperature
T4 construct: GST; purchased Carna BioSciences 01-142
T4 sequence (Q13976 1-686 isoform Q13976-2): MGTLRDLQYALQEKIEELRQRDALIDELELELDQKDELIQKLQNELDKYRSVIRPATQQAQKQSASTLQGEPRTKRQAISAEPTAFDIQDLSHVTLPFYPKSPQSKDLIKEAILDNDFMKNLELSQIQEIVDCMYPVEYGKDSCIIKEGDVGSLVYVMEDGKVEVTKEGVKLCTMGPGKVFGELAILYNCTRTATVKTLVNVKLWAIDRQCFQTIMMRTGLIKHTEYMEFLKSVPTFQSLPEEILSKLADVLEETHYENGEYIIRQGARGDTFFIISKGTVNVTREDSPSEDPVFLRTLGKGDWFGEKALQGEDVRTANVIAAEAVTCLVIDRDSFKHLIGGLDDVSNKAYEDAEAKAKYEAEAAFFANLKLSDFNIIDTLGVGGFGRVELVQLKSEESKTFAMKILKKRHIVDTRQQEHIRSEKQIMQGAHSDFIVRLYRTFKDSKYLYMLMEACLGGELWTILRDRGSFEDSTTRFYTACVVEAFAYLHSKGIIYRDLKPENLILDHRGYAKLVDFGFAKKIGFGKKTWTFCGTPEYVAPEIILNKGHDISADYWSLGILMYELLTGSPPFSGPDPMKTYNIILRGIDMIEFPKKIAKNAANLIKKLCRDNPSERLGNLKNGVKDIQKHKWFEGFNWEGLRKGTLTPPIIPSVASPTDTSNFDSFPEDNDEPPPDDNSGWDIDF
Experimental: as §2, §1, §3

[5] = target: T5, human AKT1 catalytic domain (Homo sapiens, UniProt P31749); assay: fluorescence coupling (TR-FRET) enzymatic assay, AKT1 off-target control; details: 0.5 nM enzyme, 4 μM ATP, 50 nM Ulight-CREBTide, one hour room temperature
T5 construct: GST; purchased Carna BioSciences 01-101
Experimental: as §2, §1, §3

[6] = 4 nM enzyme, 4 μM ATP, 50 nM Ulight-CREBTide, one hour room temperature, read-out: ROCK1 IC50

T1 sequence (Q13464 1-477): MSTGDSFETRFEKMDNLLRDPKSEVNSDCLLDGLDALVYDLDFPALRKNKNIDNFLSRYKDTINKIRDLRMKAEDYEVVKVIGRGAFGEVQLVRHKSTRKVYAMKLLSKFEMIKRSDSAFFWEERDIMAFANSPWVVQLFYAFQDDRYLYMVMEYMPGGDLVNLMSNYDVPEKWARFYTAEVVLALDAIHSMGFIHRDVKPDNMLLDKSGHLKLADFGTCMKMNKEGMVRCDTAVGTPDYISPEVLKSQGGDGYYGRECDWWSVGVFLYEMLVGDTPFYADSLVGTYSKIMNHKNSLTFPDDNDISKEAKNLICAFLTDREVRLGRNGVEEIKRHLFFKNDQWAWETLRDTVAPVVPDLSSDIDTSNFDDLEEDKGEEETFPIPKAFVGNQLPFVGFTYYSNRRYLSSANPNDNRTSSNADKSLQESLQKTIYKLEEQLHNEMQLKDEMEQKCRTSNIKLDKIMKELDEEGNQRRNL
T5 sequence (P31749 104-480): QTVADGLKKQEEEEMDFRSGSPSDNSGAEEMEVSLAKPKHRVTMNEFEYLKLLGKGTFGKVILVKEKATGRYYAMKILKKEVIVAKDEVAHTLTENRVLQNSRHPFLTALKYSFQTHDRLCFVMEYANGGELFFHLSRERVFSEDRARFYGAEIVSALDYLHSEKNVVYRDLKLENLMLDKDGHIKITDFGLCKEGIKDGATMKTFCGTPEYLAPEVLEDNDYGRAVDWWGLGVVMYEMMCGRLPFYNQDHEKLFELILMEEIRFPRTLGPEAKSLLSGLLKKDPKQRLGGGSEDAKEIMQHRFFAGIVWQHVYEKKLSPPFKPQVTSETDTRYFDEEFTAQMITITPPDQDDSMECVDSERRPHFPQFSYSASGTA
T2 sequence (O75116 1-553): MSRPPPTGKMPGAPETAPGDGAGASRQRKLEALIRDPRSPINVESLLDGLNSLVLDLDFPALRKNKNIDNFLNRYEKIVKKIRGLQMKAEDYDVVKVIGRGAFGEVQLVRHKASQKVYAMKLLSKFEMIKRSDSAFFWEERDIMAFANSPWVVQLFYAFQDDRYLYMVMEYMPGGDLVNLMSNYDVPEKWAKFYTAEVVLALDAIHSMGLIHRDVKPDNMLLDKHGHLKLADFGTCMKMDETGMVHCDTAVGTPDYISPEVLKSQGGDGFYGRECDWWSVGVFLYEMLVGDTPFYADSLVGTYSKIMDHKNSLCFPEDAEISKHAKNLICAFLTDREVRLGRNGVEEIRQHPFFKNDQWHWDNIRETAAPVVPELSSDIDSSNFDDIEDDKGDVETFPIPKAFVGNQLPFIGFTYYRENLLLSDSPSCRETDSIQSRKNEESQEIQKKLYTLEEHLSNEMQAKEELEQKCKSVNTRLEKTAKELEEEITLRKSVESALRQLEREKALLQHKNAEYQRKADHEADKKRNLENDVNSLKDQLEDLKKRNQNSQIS

Compound	IC50 [1, 6] [µM]	IC50 [2] [µM]	IC50 [3] [µM]	IC50 [4] [µM]	IC50 [5] [µM]	IC50 [1] [µM]
O=c1[nH]ccc2c(S(=O)(=O)N3CCc4cc(O)ccc43)cccc12 [Example 2, 5-((5-Hydroxyindolin-1-yl)sulfonyl)isoquinolin-1 (2H)-one]	> 10	> 10	> 10	> 10	> 10	
O=c1[nH]ccc2c(S(=O)(=O)N3CCc4ccccc43)cccc12 [Example 3, 5-(Indolin-1-ylsulfonyl)isoquinolin-1 (2H)-one]	1 to 10	1 to 10	> 10	> 10	> 10	
O=c1[nH]ccc2c(S(=O)(=O)N3CCc4ccc(F)cc43)cccc12 [Example 5, 5-((6-Fluoroindolin-1-yl)sulfonyl)isoquinolin-1 (2H)-one]	1 to 10	1 to 10	> 10	> 10	> 10	
O=c1[nH]ccc2c(S(=O)(=O)N3CCc4c(CO)cccc43)cccc12 [Example 7, 5-((4-(Hydroxymethyl)indolin-1-yl)sulfonyl)isoquinolin-1 (2H)-one]		1 to 10	> 10	> 10	> 10	1 to 10
O=c1[nH]ccc2c(S(=O)(=O)N3CCc4c3cccc4C(F)(F)F)cccc12 [Example 8, 5-((4-(Trifluoromethyl)indolin-1-yl)sulfonyl)isoquinolin-1 (2H)-one]	> 10	> 10	> 10	> 10	> 10	
O=c1[nH]ccc2c(S(=O)(=O)N3CCc4c(C5CC5)cccc43)cccc12 [Example 9, 5-((4-Cyclopropylindolin-1-yl)sulfonyl)isoquinolin-1 (2H)-one]	> 10	> 10	> 10	> 10	> 10	
CCc1cccc2c1CCN2S(=O)(=O)c1cccc2c(=O)[nH]ccc12 [Example 10, 5-((4-ethylindolin-1-yl)sulfonyl)isoquinolin-1 (2H)-one]	> 10	> 10	> 10	> 10	> 10	
CC(O)c1cccc2c1CCN2S(=O)(=O)c1cccc2c(=O)[nH]ccc12 (centres unmarked) [Example 11, 5-((4-(1-Hydroxyethyl)indolin-1-yl)sulfonyl)isoquinolin-1 (2H)-one]	1 to 10	1 to 10	> 10	> 10	> 10	
CC1(C)CN(S(=O)(=O)c2cccc3c(=O)[nH]ccc23)c2ccccc21 [Example 12, 5-((3,3-Dimethylindolin-1-yl)sulfonyl)isoquinolin-1 (2H)-one]	> 10	> 10	> 10	> 10	> 10	
CC1CN(S(=O)(=O)c2cccc3c(=O)[nH]ccc23)c2ccccc21 (centres unmarked) [Example 13, 5-((3-Methylindolin-1-yl)sulfonyl)isoquinolin-1 (2H)-one]	> 10	> 10	> 10	> 10	> 10	
CC(C)c1cccc2c1CCN2S(=O)(=O)c1cccc2c(=O)[nH]ccc12 [Example 14, 5-((4-Isopropylindolin-1-yl)sulfonyl)isoquinolin-1 (2H)-one]	> 10	> 10	> 10	> 10	> 10	
O=c1[nH]ccc2c(S(=O)(=O)N3CCc4c(Cl)cc(Cl)cc43)cccc12 [Example 16, 5-((4,6-Dichloroindolin-1-yl)sulfonyl)isoquinolin-1 (2H)-one]	1 to 10	1 to 10	> 10	> 10	> 10	
O=c1[nH]ccc2c(S(=O)(=O)N3CCc4ccc(Cl)cc43)cc(Cl)cc12 [Example 19, 7-Chloro-5-((6-chloroindolin-1-yl)sulfonyl)isoquinolin-1 (2H)-one]	> 10	> 10	> 10	> 10	> 10	

Further lines, results first:

IC50 [1, 6] [µM]	IC50 [2] [µM]	IC50 [3] [µM]	IC50 [4] [µM]	IC50 [5] [µM]	IC50 [1] [µM]	Compound
1 to 10	1 to 10	> 10	> 10	> 10		Cc1cccc2c1CCN2S(=O)(=O)c1cccc2c(=O)[nH]ccc12 [Example 1, 5-((4-Methylindolin-1-yl)sulfonyl)isoquinolin-1 (2H)-one]
0.1 to 1	0.1 to 1	> 10	> 10	> 10		O=c1[nH]ccc2c(S(=O)(=O)N3CCc4ccc(Cl)cc43)cccc12 [Example 4, 5-((6-Chloroindolin-1-yl)sulfonyl)isoquinolin-1 (2H)-one]
1 to 10	0.1 to 1	> 10	> 10	> 10		Cc1ccc2c(c1)N(S(=O)(=O)c1cccc3c(=O)[nH]ccc13)CC2 [Example 6, 5-((6-Methylindolin-1-yl)sulfonyl)isoquinolin-1 (2H)-one]
0.1 to 1	< 0.1	> 10	> 10	> 10		N#Cc1ccc2c(c1)N(S(=O)(=O)c1cccc3c(=O)[nH]ccc13)CC2 [Example 15, 1-((1-Oxo-1,2-dihydroisoquinolin-5-yl)sulfonyl)indoline-6-carbonitrile]
0.1 to 1	0.1 to 1	> 10	> 10	> 10		N#Cc1cc(C2CC2)c2c(c1)N(S(=O)(=O)c1cccc3c(=O)[nH]ccc13)CC2 [Example 17]
0.1 to 1	0.1 to 1	> 10	> 10	> 10		Cc1cc(C#N)cc2c1CCN2S(=O)(=O)c1cccc2c(=O)[nH]ccc12 [Example 18]
